BindingDB's records for doi:10.7270/Q2TX3CTT (Broad Institute, 2010)

Each compound was assayed against Glycogen synthase kinase-3 beta (Homo sapiens, UniProt P49841) (assay: GSK3beta kinase inhibitor potency, dose response, biochemical, luminescence, cell-free homogeneous, retest (AID 434954)).
Chain of Glycogen synthase kinase-3 beta (P49841 whole entry): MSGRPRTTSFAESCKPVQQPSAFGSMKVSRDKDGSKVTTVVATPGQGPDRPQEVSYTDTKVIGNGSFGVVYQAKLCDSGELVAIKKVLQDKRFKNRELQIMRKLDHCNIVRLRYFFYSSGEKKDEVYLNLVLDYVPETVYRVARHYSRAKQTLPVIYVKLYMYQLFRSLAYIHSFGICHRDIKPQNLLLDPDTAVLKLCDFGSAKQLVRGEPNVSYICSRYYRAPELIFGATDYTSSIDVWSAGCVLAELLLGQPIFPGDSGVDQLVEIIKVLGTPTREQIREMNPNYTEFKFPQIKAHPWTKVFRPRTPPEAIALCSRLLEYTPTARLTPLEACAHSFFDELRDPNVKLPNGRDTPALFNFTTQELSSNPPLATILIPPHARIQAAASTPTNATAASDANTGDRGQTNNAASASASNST
Nc1nonc1-n1nnc(C(=O)NN=Cc2ccoc2)c1CSc1ccccc1 [1-(4-azanyl-1,2,5-oxadiazol-3-yl)-N-(furan-3-ylmethylideneamino)-5-(phenylsulfanylmethyl)-1,2,3-triazole-4-carboxamide] was tested, and the EC50 was > 300 µM.
COc1cc(NC(=S)Nc2ccccn2)c(OC)cc1Cl [1-(4-chloranyl-2,5-dimethoxy-phenyl)-3-pyridin-2-yl-thiourea] was tested, and the EC50 was 12.3 µM.
C[C@H](C(O)c1ccccc1)N(C)C(=O)CN (stereo not given in full) [SMR000639412] was tested, and the EC50 was > 300 µM.
CCOc1cc(C2C(C(=O)N3CCCCC3)=C(C)N=C3CC(C)(C)CC(=O)C32)ccc1O (stereo not given) [4-(3-ethoxy-4-hydroxyphenyl)-2,7,7-trimethyl-3-[oxo(1-piperidinyl)methyl]-1,4,6,8-tetrahydroquinolin-5-one] was tested, and the EC50 was > 300 µM.
For CC1CCCCC1NC(=O)CN(C)S(=O)(=O)c1cccc2cccnc12 (stereo not given) [N-(2-methylcyclohexyl)-2-[methyl(quinolin-8-ylsulfonyl)amino]acetamide], the EC50 was > 300 µM.
FC(F)(F)COc1ccc(-n2ccnc2)nn1 [SMR000307161] was tested, and the EC50 was > 300 µM.
With CCc1nn(CC(=O)NCCN2CCOCC2)c(=O)c2cc3c(OC)cccc3n12 [2-(4-ethyl-9-methoxy-1-oxidanylidene-[1,2,4]triazino[4,5-a]indol-2-yl)-N-(2-morpholin-4-ylethyl)ethanamide] the EC50 was > 300 µM.
In the case of O=[N+]([O-])c1ccccc1Oc1ccc(Cl)c2cccnc12 [MLS000721853], the EC50 is reported as > 300 µM.
For Cc1n[nH]c(O)c1N=Nc1ccc(S(N)(=O)=O)cc1 [4-[2-(3-methyl-5-oxopyrazol-4-yl)hydrazinyl]benzenesulfonamide], the EC50 was 36.6 µM.
For CCN(CC)Cc1c(C(=O)NN=Cc2c(Cl)cccc2Cl)nnn1-c1nonc1N [SMR000620609], the EC50 was > 300 µM.
O=C1NCCCc2c1oc1cc(Br)c(O)c(Br)c21 [MLS000043345] showed an EC50 of 40.7 µM.
In the case of O=C(CCC1COc2ccccc2O1)NCC1COc2ccccc2O1 (stereo not given), the EC50 is reported as > 300 µM.
For O=C(O)COc1ccc2occ(C(=O)c3ccccc3)c2c1, the EC50 was 4.3 µM.
With COc1cc(OC)cc(C(=O)NCC2CCCN(C(=O)c3csc(C)n3)C2)c1 (stereo not given) [MLS001072180] the EC50 was > 300 µM.
With Nc1nc(S)c2ncn(C3OC(CO)C(O)C3O)c2n1 (stereo not given) [2-azanyl-9-[5-(hydroxymethyl)-3,4-bis(oxidanyl)oxolan-2-yl]-3H-purine-6-thione] the EC50 was > 300 µM.
Compound CCN(CC)Cc1c(C(=O)NN=Cc2ccc(C)o2)nnn1-c1nonc1N [1-(4-amino-1,2,5-oxadiazol-3-yl)-5-(diethylaminomethyl)-N-[(5-methylfuran-2-yl)methylideneamino]triazole-4-carboxamide] has an EC50 of 23 µM.
COc1cccc(-c2nc(SCC(=O)Nc3nc(-c4ccccc4)c(C)s3)[nH]c(=O)c2C#N)c1 was tested, and the EC50 was > 300 µM.
Compound COC(=O)c1ccc(CSc2ccc3nnc(-c4ccc(F)cc4)n3n2)o1 [5-[[[3-(4-fluorophenyl)-[1,2,4]triazolo[4,3-b]pyridazin-6-yl]thio]methyl]-2-furancarboxylic acid methyl ester] has an EC50 of 4.59 µM.
With CCOc1ccc2c(c1)-c1c(ssc1=S)C(C)(C)N2C [MLS000529181] the EC50 was > 300 µM.
For Cc1ccc(C(=O)c2coc3ccc(O)c(CN(C)C)c23)cc1 [(4-Dimethylaminomethyl-5-hydroxy-benzofuran-3-yl)-p-tolyl-methanone], the EC50 was > 300 µM.
For CC1=C(C#N)C(=O)NC(=O)C1=CNc1ccc(S(=O)(=O)CCO)cc1 [(5Z)-5-[[[4-(2-hydroxyethylsulfonyl)phenyl]amino]methylidene]-4-methyl-2,6-bis(oxidanylidene)pyridine-3-carbonitrile], the EC50 was > 300 µM.
COC(=O)c1nnn(-c2nonc2N)c1CSc1ccc(Cl)cc1 gave an EC50 of 15.9 µM.
Work on Cn1c(SCc2nnc(-c3ccc(F)cc3)o2)nnc1C1COc2ccccc2O1 (stereo not given) [MLS000098636] yielded an EC50 of 221 µM.
In the case of Cc1ccc(S(=O)(=O)N(C)CC(=O)N2CCCc3ccccc32)cc1 [SMR000076264], the EC50 is reported as > 300 µM.
For O=C(O)c1ccccc1Nc1ccc(OC(F)F)cc1 [SMR000372165], the EC50 was > 300 µM.
For Cc1ccc(-c2nn(-c3ccccc3)cc2C=Nn2c(-c3ccncc3)n[nH]c2=S)cc1 [4-[[3-(4-methylphenyl)-1-phenyl-4-pyrazolyl]methylideneamino]-3-pyridin-4-yl-1H-1,2,4-triazole-5-thione], the EC50 was > 300 µM.
For Cc1ccc2c(c1)=C(NN1C(=O)c3ccccc3C1=O)C(=O)N=2 [MLS000573597], the EC50 was > 300 µM.
With Cc1cccc(Nc2nc(N3CCN(C)CC3)nc(N)c2[N+](=O)[O-])c1 [N4-(3-methylphenyl)-2-(4-methylpiperazin-1-yl)-5-nitro-pyrimidine-4,6-diamine] the EC50 was > 300 µM.
In the case of CCCN(CCC)Cc1c(C(=O)NN=Cc2c[nH]c3ccccc23)nnn1-c1nonc1N, the EC50 is reported as > 300 µM.
CC(C)CCNc1nc(N)c([N+](=O)[O-])c(NCC2CCCO2)n1 (stereo not given) [SMR000220274] was tested, and the EC50 was 1.43 µM.
In the case of CC(C(=O)NCc1ccccc1)n1cc([N+](=O)[O-])cn1 (stereo not given) [SMR000559338], the EC50 is reported as > 300 µM.
With c1ccc(CCCCNCC2COc3ccccc3O2)cc1 (stereo not given) [N-(2,3-dihydro-1,4-benzodioxin-3-ylmethyl)-4-phenylbutan-1-amine] the EC50 was > 300 µM.
For O=c1cc(-c2ccccc2)oc2cc(O)cc(O)c12 [5,7-dihydroxy-2-phenyl-4H-chromen-4-one], the EC50 was > 300 µM.
CCc1nc2oc3cc(OC)ccc3c(=O)c2c(=O)n1Cc1ccccc1 [2-ethyl-8-methoxy-3-(phenylmethyl)chromeno[2,3-d]pyrimidine-4,5-dione] gave an EC50 of 4.2 µM.
O=NCc1cn(-c2ccccc2)nc1-c1cccnc1 [N-[(1-phenyl-3-pyridin-3-ylpyrazol-4-yl)methylidene]hydroxylamine] showed an EC50 of 6.45 µM.
In the case of c1ccc(Nc2nc(-c3ccccc3)nc3ccccc23)cc1 [N,2-diphenylquinazolin-4-amine], the EC50 is reported as > 300 µM.
With CC(=O)N1CCc2c(sc(NC(=O)CCS(=O)(=O)c3ccc(C)cc3)c2C(N)=O)C1 [6-ethanoyl-2-[3-(4-methylphenyl)sulfonylpropanoylamino]-5,7-dihydro-4H-thieno[2,3-c]pyridine-3-carboxamide] the EC50 was 26.2 µM.
In the case of Nc1ncnc(N(c2ccccc2)C2CCCCC2)c1[N+](=O)[O-] [N-cyclohexyl-5-nitro-N-phenyl-4,6-pyrimidinediamine], the EC50 is reported as > 300 µM.
With COc1cc([CH+][N-]NC(=O)COc2ccc([N+](=O)[O-])cc2)ccc1OCC(=O)N1CCOCC1 [N-[[3-methoxy-4-[2-(4-morpholinyl)-2-oxoethoxy]phenyl]methylideneamino]-2-(4-nitrophenoxy)acetamide] the EC50 was > 300 µM.
For CCc1cc2c(s1)NC(=O)CN=C2c1cccs1, the EC50 was 32.7 µM.
In the case of CN(Cc1ccccc1)S(=O)(=O)c1ccc2c(c1)NC(=O)CC(=O)N2 [N-benzyl-N-methyl-2,4-dioxo-1,5-dihydro-1,5-benzodiazepine-7-sulfonamide], the EC50 is reported as > 300 µM.
For NS(=O)(=O)c1ccc(CCNC(=O)C(=O)c2cn(CC(=O)N3CCCC3)c3ccccc23)cc1 [MLS001235966], the EC50 was > 300 µM.
N#Cc1c(-c2cccs2)cc(-c2cccnc2)nc1N [SMR000043147] was tested, and the EC50 was 10.4 µM.
In the case of Cc1ccc(OCC(=O)N/N=C/c2ccc(O)c([N+](=O)[O-])c2)c([N+](=O)[O-])c1 [SMR000312577], the EC50 is reported as > 300 µM.
In the case of COc1ccc(OC)c(C2Nc3ccccc3N=C3CC(C)(C)CC(=O)C32)c1 (stereo not given) [SMR000515998], the EC50 is reported as > 300 µM.
CCOc1cc(C(=O)OCC(=O)Nc2ccc(Cl)cn2)ccc1OCC(=O)N1CCOCC1 [MLS000334350] was tested, and the EC50 was 61.8 µM.
In the case of COC(=O)c1sc(Nc2ccccc2)nc1C [2-anilino-4-methyl-5-thiazolecarboxylic acid methyl ester], the EC50 is reported as > 300 µM.
CCC(CC)NC(=O)COC(=O)c1ccc2c(c1)C(=O)N(Cc1ccco1)C2=O [2-(2-furanylmethyl)-1,3-dioxo-5-isoindolecarboxylic acid [2-oxo-2-(pentan-3-ylamino)ethyl] ester] was tested, and the EC50 was > 300 µM.
For NC(=O)C1CCN(c2nc3c(S(=O)(=O)c4ccccc4)nnn3c3ccccc23)CC1 [SMR000629006], the EC50 was > 300 µM.
O=C(NC(=S)Nc1cccc2c(O)cccc12)c1ccco1 [N-[(5-hydroxynaphthalen-1-yl)carbamothioyl]furan-2-carboxamide] showed an EC50 of 83.9 µM.
CC1=C(C#N)C(=O)NC(=O)C1=NNc1ccc(S(N)(=O)=O)cc1 [4-[(2Z)-2-(5-cyano-4-methyl-2,6-dioxopyridin-3-ylidene)hydrazinyl]benzenesulfonamide] was tested, and the EC50 was 0.917 µM.
For COc1cc(/C=C/c2nc3ccc([N+](=O)[O-])cc3s2)ccc1OCC(=O)O [SMR000365317], the EC50 was > 300 µM.
In the case of CCCCCOC(=O)C1C(C)=Nc2ncnn2C1c1cccs1 (stereo not given), the EC50 is reported as > 300 µM.
For CCCCCCNC(=O)C(C(=O)OCC)C1CCCCC1 (stereo not given) [ethyl 2-cyclohexyl-3-(hexylamino)-3-oxidanylidene-propanoate], the EC50 was > 300 µM.
For COc1cc(C=NNC(=O)c2sc(N)c(C#N)c2C)ccc1O [MLS000540774], the EC50 was 0.436 µM.
In the case of C[N+](C)=c1ccn(CC(=O)N2c3ccccc3Sc3ccccc32)cc1, the EC50 is reported as > 300 µM.
For O=C(CSc1nnc(-c2ccncc2)n1-c1ccc(F)cc1)NC(=O)NCc1ccco1 [SMR000065428], the EC50 was > 300 µM.
With Nc1nonc1-n1nnc(C(=O)NN=Cc2ccccc2Cl)c1CN1CCOCC1 the EC50 was 60.5 µM.
For CCCn1nc(NC(=O)C(C)C)c2cc3cc(OC)ccc3nc21 [N-(6-methoxy-1-propylpyrazolo[3,4-b]quinolin-3-yl)-2-methylpropanamide], the EC50 was > 300 µM.
For COc1ccc2nc(NC(=O)CSc3nc4cccnc4n3C)sc2c1 [MLS000072990], the EC50 was 113 µM.
For O=C(COC(=O)C1CCN(S(=O)(=O)c2ccccc2)CC1)NC(=O)c1ccc(OC(F)F)cc1 [MLS000394677], the EC50 was > 300 µM.
For Cc1cc2c(s1)NC(=O)CN=C2c1cccs1 [MLS000072965], the EC50 was 33.1 µM.
In the case of COC(=O)c1cn(NC(=O)c2cccnc2)c(=O)c2ccccc12 [1-keto-2-nicotinamido-isoquinoline-4-carboxylic acid methyl ester], the EC50 is reported as > 300 µM.
With CC1(C)CC(=O)C=C(Nc2ccc3c(c2)OCCO3)C1 [3-(2,3-dihydro-1,4-benzodioxin-6-ylamino)-5,5-dimethyl-1-cyclohex-2-enone] the EC50 was > 300 µM.
CCSc1nc(-c2ccccc2)c(C#N)c(=O)[nH]1 [2-ethylsulfanyl-4-oxidanylidene-6-phenyl-1H-pyrimidine-5-carbonitrile] was tested, and the EC50 was > 300 µM.
